Reference: patent US12435044B2, “Pyridazinone herbicides and pyridazinone intermediates used to prepare a herbicide” (FMC Corporation, priority 2018, dated 2025)

Experiments:
Experiment in all cases: Test J pre-/postemergence, mixtures of Cpd. No. 20 with (b15C2)
Format in all cases: in vivo
[1] = test system: mare's tail (ERICA; Conyza canadensis)
From the text: (§1) This test evaluated the effect of mixtures of Cpd. No. 20 with (b15C2) on several plant species. Seeds of plant species selected from corn (ZEAMD; Zea mays, cv. ‘Pioneer 1184’), soybean (GLXMA; Glycine max, cv. Pioneer 35T58), giant foxtail (SETFA; Setaria faberi), palmer amaranth (AMAPA; Amaranthus palmeri), common waterhemp (AMATU; Amaranthus rudis), mare's tail (ERICA; Conyza canadensis), and common ragweed (AMBEL; Ambrosia artemisiifolia) were planted in pots containing Tama Silt Loam soil and treated preemergence with a directed soil spray using test chemicals formulated in a non-phytotoxic solvent mixture which included a surfactant.
(§2) At the same time, plants selected from these crop and weed species were planted in pots containing Redi-Earth® planting medium (Scotts Company, 14111 Scottslawn Road, Marysville, Ohio 43041) comprising spaghnum peat moss, vermiculite, wetting agent and starter nutrients and treated postemergence with test chemicals formulated in the same manner. Plants ranged in height from 2 to 10 cm and were in the one- to two-leaf stage for the postemergence treatment. Treated plants and untreated controls were maintained in a greenhouse for approximately 14-21 d, after which time all treated plants were compared to untreated controls and visually evaluated for injury. Plant response ratings, summarized in Tables J1 & J2, are based on a 0 to 100 scale where 0 is no effect and 100 is complete control. A dash (-) response means no test result. Test results are presented as a mean of 4 reps.

[2] = test system: common waterhemp (AMATU; Amaranthus rudis)
From the text: as §1, §2

[3] = test system: corn (ZEAMD; Zea mays, cv. ‘Pioneer 1184’)
From the text: as §1, §2

[4] = test system: palmer amaranth (AMAPA; Amaranthus palmeri)
From the text: as §1, §2

[5] = test system: common ragweed (AMBEL; Ambrosia artemisiifolia)
From the text: as §1, §2

[6] = test system: soybean (GLXMA; Glycine max, cv. Pioneer 35T58)
From the text: as §1, §2

[7] = test system: giant foxtail (SETFA; Setaria faberi)
From the text: as §1, §2

Structure (SMILES): O=C(CCC(F)(F)F)c1c(Cl)cccc1Oc1ncc(Cl)cn1 [(b15C2), 1-[2-chloro-6-[(5-chloro-2-pyrimidinyl)oxy]phenyl]-4,4,4-trifluoro-1-butanone, reference compound]
- ERICA plant response rating, 0 to 100 scale ([1]; postemergence, 8 g a.i./ha): 0
- ERICA plant response rating, 0 to 100 scale ([1]; postemergence, 16 g a.i./ha): 0
- ERICA plant response rating, 0 to 100 scale ([1]; postemergence, 31 g a.i./ha): 0
- ERICA plant response rating, 0 to 100 scale ([1]; postemergence, 62 g a.i./ha): 5
- ERICA plant response rating, 0 to 100 scale ([1]; preemergence, 8 g a.i./ha): 0
- ERICA plant response rating, 0 to 100 scale ([1]; preemergence, 16 g a.i./ha): 0
- ERICA plant response rating, 0 to 100 scale ([1]; preemergence, 31 g a.i./ha): 0
- ERICA plant response rating, 0 to 100 scale ([1]; preemergence, 62 g a.i./ha): 13
- AMATU plant response rating, 0 to 100 scale ([2]; postemergence, 8 g a.i./ha): 43
- AMATU plant response rating, 0 to 100 scale ([2]; postemergence, 16 g a.i./ha): 55
- AMATU plant response rating, 0 to 100 scale ([2]; postemergence, 31 g a.i./ha): 75
- AMATU plant response rating, 0 to 100 scale ([2]; postemergence, 62 g a.i./ha): 83
- AMATU plant response rating, 0 to 100 scale ([2]; preemergence, 8 g a.i./ha): 20
- AMATU plant response rating, 0 to 100 scale ([2]; preemergence, 16 g a.i./ha): 79
- AMATU plant response rating, 0 to 100 scale ([2]; preemergence, 31 g a.i./ha): 100
- AMATU plant response rating, 0 to 100 scale ([2]; preemergence, 62 g a.i./ha): 100
- ZEAMD plant response rating, 0 to 100 scale ([3]; postemergence, 8 g a.i./ha): 3
- ZEAMD plant response rating, 0 to 100 scale ([3]; postemergence, 16 g a.i./ha): 5
- ZEAMD plant response rating, 0 to 100 scale ([3]; postemergence, 31 g a.i./ha): 9
- ZEAMD plant response rating, 0 to 100 scale ([3]; postemergence, 62 g a.i./ha): 10
- ZEAMD plant response rating, 0 to 100 scale ([3]; preemergence, 8 g a.i./ha): 0
- ZEAMD plant response rating, 0 to 100 scale ([3]; preemergence, 16 g a.i./ha): 0
- ZEAMD plant response rating, 0 to 100 scale ([3]; preemergence, 31 g a.i./ha): 0
- ZEAMD plant response rating, 0 to 100 scale ([3]; preemergence, 62 g a.i./ha): 0
- AMAPA plant response rating, 0 to 100 scale ([4]; postemergence, 8 g a.i./ha): 20
- AMAPA plant response rating, 0 to 100 scale ([4]; postemergence, 16 g a.i./ha): 38
- AMAPA plant response rating, 0 to 100 scale ([4]; postemergence, 31 g a.i./ha): 56
- AMAPA plant response rating, 0 to 100 scale ([4]; postemergence, 62 g a.i./ha): 74
- AMAPA plant response rating, 0 to 100 scale ([4]; preemergence, 8 g a.i./ha): 63
- AMAPA plant response rating, 0 to 100 scale ([4]; preemergence, 16 g a.i./ha): 90
- AMAPA plant response rating, 0 to 100 scale ([4]; preemergence, 31 g a.i./ha): 100
- AMAPA plant response rating, 0 to 100 scale ([4]; preemergence, 62 g a.i./ha): 100
- AMBEL plant response rating, 0 to 100 scale ([5]; postemergence, 8 g a.i./ha): 5
- AMBEL plant response rating, 0 to 100 scale ([5]; postemergence, 16 g a.i./ha): 3
- AMBEL plant response rating, 0 to 100 scale ([5]; postemergence, 31 g a.i./ha): 10
- AMBEL plant response rating, 0 to 100 scale ([5]; postemergence, 62 g a.i./ha): 20
- AMBEL plant response rating, 0 to 100 scale ([5]; preemergence, 8 g a.i./ha): 0
- AMBEL plant response rating, 0 to 100 scale ([5]; preemergence, 16 g a.i./ha): 0
- AMBEL plant response rating, 0 to 100 scale ([5]; preemergence, 31 g a.i./ha): 0
- AMBEL plant response rating, 0 to 100 scale ([5]; preemergence, 62 g a.i./ha): 15
- GLXMA plant response rating, 0 to 100 scale ([6]; postemergence, 8 g a.i./ha): 20
- GLXMA plant response rating, 0 to 100 scale ([6]; postemergence, 16 g a.i./ha): 29
- GLXMA plant response rating, 0 to 100 scale ([6]; postemergence, 31 g a.i./ha): 43
- GLXMA plant response rating, 0 to 100 scale ([6]; postemergence, 62 g a.i./ha): 68
- GLXMA plant response rating, 0 to 100 scale ([6]; preemergence, 8 g a.i./ha): 0
- GLXMA plant response rating, 0 to 100 scale ([6]; preemergence, 16 g a.i./ha): 0
- GLXMA plant response rating, 0 to 100 scale ([6]; preemergence, 31 g a.i./ha): 0
- GLXMA plant response rating, 0 to 100 scale ([6]; preemergence, 62 g a.i./ha): 0
- SETFA plant response rating, 0 to 100 scale ([7]; postemergence, 8 g a.i./ha): 5
- SETFA plant response rating, 0 to 100 scale ([7]; postemergence, 16 g a.i./ha): 5
- SETFA plant response rating, 0 to 100 scale ([7]; postemergence, 31 g a.i./ha): 8
- SETFA plant response rating, 0 to 100 scale ([7]; postemergence, 62 g a.i./ha): 6
- SETFA plant response rating, 0 to 100 scale ([7]; preemergence, 8 g a.i./ha): 8
- SETFA plant response rating, 0 to 100 scale ([7]; preemergence, 16 g a.i./ha): 64
- SETFA plant response rating, 0 to 100 scale ([7]; preemergence, 31 g a.i./ha): 95
- SETFA plant response rating, 0 to 100 scale ([7]; preemergence, 62 g a.i./ha): 100
